# Literature values as cited in patent publication US20260275282A1, “CELLS BEING HIGHLY ENRICHED IN SASP FACTORS, AND COMPOSITION COMPRISING SAID CELLS” (EVOMEDIS GMBH, priority 2022, published 2026).
# Peptide text beside a SMILES is read from it.
# Test system: microtubules assembly
# Conditions: half of the maximal concentration necessary to inhibit the microtubules assembly
row,IC50,Compound
1,8 nM,"CC(=O)O[C@H]1C(=O)[C@@]2(C)[C@H]([C@H](OC(=O)c3ccccc3)[C@]3(O)C[C@H](OC(=O)[C@H](O)[C@@H](NC(=O)c4ccccc4)c4ccccc4)C(C)=C1C3(C)C)[C@]1(OC(C)=O)CO[C@@H]1C[C@@H]2O [Paclitaxel (Taxol), Paclitaxel]"
2,0.8 nM,CC[C@]1(O)C[C@@H]2CN(CCc3c([nH]c4ccccc34)[C@@](C(=O)OC)(c3cc4c(cc3OC)N(C)[C@H]3[C@@](O)(C(=O)OC)[C@H](OC(C)=O)[C@]5(CC)C=CCN6CC[C@]43[C@@H]65)C2)C1 [Vinblastine]
3,0.8 nM,CC[C@]1(O)C[C@H]2CN(CCc3c([nH]c4ccccc34)[C@@](C(=O)OC)(c3cc4c(cc3OC)N(C=O)[C@H]3[C@@](O)(C(=O)OC)[C@H](OC(C)=O)[C@]5(CC)C=CCN6CC[C@]43[C@@H]65)C2)C1 [Vincristine]
4,0.8 nM,CC[C@]1(O)C[C@@H]2CN(CCc3c([nH]c4ccccc34)[C@@](C(=O)OC)(c3cc4c(cc3OC)N(C)[C@H]3[C@@](O)(C(N)=O)[C@H](O)[C@]5(CC)C=CCN6CC[C@]43[C@@H]65)C2)C1 [Vindesine]
5,0.8 nM,CCC1=C[C@@H]2CN(C1)Cc1c([nH]c3ccccc13)[C@@](C(=O)OC)(c1cc3c(cc1OC)N(C)[C@H]1[C@@](O)(C(=O)OC)[C@H](OC(C)=O)[C@]4(CC)C=CCN5CC[C@]31[C@@H]54)C2 [Vinorelbine]

row,Compound,IC50
1,C/C1=C/C[C@@H](/C(C)=C/c2csc(C)n2)OC(=O)C[C@H](O)C(C)(C)C(=O)[C@H](C)[C@@H](O)[C@@H](C)CCC1 [Desoxyepothilone B],13 nM
2,COC(=O)Nc1nc2ccc(C(=O)c3cccs3)cc2[nH]1 [Nocodazole],0.8 nM
3,CC[C@]12C=CCN3CC[C@@]4(c5cc([C@@]6(C(=O)OC)C[C@@H]7C[C@@H](C(C)(F)F)CN(Cc8c6[nH]c6ccccc86)C7)c(OC)cc5N(C)[C@H]4[C@@](O)(C(=O)OC)[C@@H]1OC(C)=O)[C@@H]32 [Vinflunine],0.8 nM

# Test system: proteasome
# Conditions: Inhibitor of proteasome; read-out: Concentration (IC50)
row,IC50,Compound
1,[…],CC(C)C[C@H](NC(=O)[C@H](Cc1ccccc1)NC(=O)c1cnccn1)B(O)O [Bortezomib]

# Test system: PI3K-mTOR
# Conditions: Dual inhibitor of PI3K-mTOR; read-out: Concentration (IC50)
row,IC50,Compound
1,8 to 150 nM,Oc1cccc(-c2nc(N3CCOCC3)c3oc4ncccc4c3n2)c1 [PI-103]

# Test system: kinesin
# Conditions: Kinesin inhibitors: Group V; read-out: Concentration (IC50)
row,Compound,IC50
1,"Cc1ccc(C(=O)N(CCCN)[C@@H](c2nc3cc(Cl)ccc3c(=O)n2Cc2ccccc2)C(C)C)cc1 [Ispinesib (SB715992), Ispinesib]",10 to 30 µM

# Test system: autophagy
# Conditions: BH3 domain mimetics; read-out: Concentration (IC50)
row,IC50,Compound
1,5 to 10 µM,CN(C)CC[C@H](CSc1ccccc1)Nc1ccc(S(=O)(=O)NC(=O)c2ccc(N3CCN(Cc4ccccc4-c4ccc(Cl)cc4)CC3)cc2)cc1[N+](=O)[O-] [ABT-737]

# Test system: protein secretion (SASP factor secretion)
# Conditions: 1 mM extracellular Ca2 - calcium dependent
row,Compound,Concentration
1,CCCC[C@@H](C=O)NC(=O)[C@H](CC(C)C)NC(=O)OCc1ccccc1 [Calpeptin],80 μM (1 mM

# Same assay, conditions: + 2-5 nM Vinblastine; actin depolymerizer with microtubule targeting-agent
row,Compound,Concentration in combination with Vinblastine
1,Methyl-β-cyclodextrin,1 mM + 2-5 nM

# Same assay, conditions: concentration range that results in significant reduction, preferably inhibition, of SASP factor secretion
row,Compound,Concentration
1,O=CC[C@@H](O)[C@H](O)[C@H](O)CO [2-Deoxyglucose],50000 µM
2,Cn1cnc(N)c2ncnc1-2 [3-Methyladenine],5000 µM
3,COc1ccc(CCN2CCC(Nc3nc4ccccc4n3Cc3ccc(F)cc3)CC2)cc1 [Astemizole],20 to 40 µM
4,"CSCC[C@@H](C=O)NC(=O)[C@H](CC(C)C)NC(=O)[C@H](CC(C)C)NC(C)=O [Calpain inhibitor II, N-acetyl-leucyl-leucyl-methioninal] (Ac-Leu-Leu-Met-aldehyde)",10 µM
5,COc1cc2c(c(OC)c1OC)-c1ccc(OC)c(=O)cc1[C@@H](NC(C)=O)CC2 [Colchicine],2 to 5 µM
6,CC(NCCC(c1ccccc1)c1ccccc1)c1ccccc1 (centres unmarked) [Fendiline],1 to 100 µM
7,CNCCC(Oc1ccc(C(F)(F)F)cc1)c1ccccc1 (centres unmarked) [Fluoxetine],30 to 100 µM
8,CN(C)CCCN1c2ccccc2CCc2ccccc21 [Imipramine],1 µM
9,"CC(Oc1ccc(O)cc1)(P(=O)(O)O)P(=O)(O)O [L-690,330]",100 µM
10,CC(=O)N[C@@H](CC(C)C)C(=O)N[C@@H](CC(C)C)C(=O)N[C@H](C=O)CCCNC(=N)N [Leupeptin],0.08 to 0.096 µM
11,NC(=O)N1CCC(CC(=O)N2CCC([C@H]3c4ncc(Br)cc4CCc4cc(Cl)cc(Br)c43)CC2)CC1 [Lonafarnib],5 µM
12,CCCC[C@@H](C)/C=C(C)/C=C(\C)C(=O)NC1=C[C@@](O)(/C=C/C=C/C=C/C(=O)NC2=C(O)CCC2=O)[C@@H]2O[C@@H]2C1=O [Manumycin A],1 µM
13,CN(C)C(=N)N=C(N)N [Metformin],5 µM
14,CC[C@@]1([C@@H]2O[C@@H]([C@H]3O[C@@](O)(CO)[C@H](C)C[C@@H]3C)C[C@@H]2C)CC[C@H]([C@]2(C)CC[C@]3(C[C@H](O)[C@@H](C)[C@@H]([C@@H](C)[C@@H](OC)[C@H](C)C(=O)O)O3)O2)O1 [Monensin],10 µM
15,CCCCc1ccc2[nH]c(NC(=O)OC)nc2c1 [Parbendazole],10 µM
16,Fc1ccc([C@@H]2CCNC[C@H]2COc2ccc3c(c2)OCO3)cc1 [Paroxetine],10 to 20 µM
17,C1CCC(C(CC2CCCCN2)C2CCCCC2)CC1 (centres unmarked) [Perhexiline],10 µM
18,Oc1ccc(C=Cc2cc(O)cc(O)c2)cc1 [Resveratrol],12.5 to 50 µM
19,CN[C@H]1CC[C@@H](c2ccc(Cl)c(Cl)c2)c2ccccc21 [Sertraline],10 µM
20,CNC(=O)c1cc(Oc2ccc(NC(=O)Nc3ccc(Cl)c(C(F)(F)F)c3)cc2)ccn1 [Sorafenib],5 to 10 µM
21,O=C(CCCN1CCC2(CC1)C(=O)NCN2c1ccccc1)c1ccc(F)cc1 [Spiperone],10 to 20 µM
22,C[C@@H]1CN2CCC[C@H]3CCCCCC[C@H]4CCN5CCC[C@@](O)(CCCCCC[C@@H]1O[C@H]32)[C@H]5O4 [Xestospongin B],0.08 to 10 µM
23,C[C@@H](N)[C@H]1CC[C@H](C(=O)Nc2ccncc2)CC1 [Y27632],5 µM
24,Cyclclosporine A,10 to 40 µM
